Laboratory results taken from patent publication US12036312B2, “Non-aqueous topical compositions comprising a halogenated salicylanilide” (priority 2016, dated 2024).
Like-named read-outs stand apart in the source and are kept apart here.

Legend:
P. acnes = type: cell-based, Propionibacterium acnes; details: for Frequency of mutation/ml: MIC × 4
[1] = tested on: methicillin-resistant Staphylococcus aureus (MRSA 01, MRSA 15, MRSA 16); test: Resistance mutation frequency evaluation, Example 3; type: cell-based
S. aureus = test: MIC assay according to CLSI criteria, Example 2, S. aureus strains; type: cell-based, Staphylococcus aureus; details: for MIC: Staphylococcus aureus, read-out: MIC
Outline: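 Broth microdilution per CLSI in cation-adjusted Mueller Hinton broth, ~5×10^5 exponential-phase cells per well, aerobic at 37° C for 18 hours; OD600 read at end.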

CC(=O)O[C@H]1C[C@@]2(C)[C@@H](C[C@@H](O)[C@H]3[C@@]4(C)CC[C@@H](O)[C@@H](C)[C@@H]4CC[C@@]32C)/C1=C(\CCC=C(C)C)C(=O)O [Fusidic acid, fusidic acid]
1.82e-08 mL⁻¹: Frequency of mutation/ml (P. acnes; P. acnes strain CSS3023)
6.15e-08 mL⁻¹: Frequency of mutation/ml (P. acnes; P. acnes strain CSS3288)
0.125 µg/mL: MIC (S. aureus; MRSA, strain MRSA 01) | MIC (S. aureus; MRSA, strain MRSA 05) | MIC (S. aureus; MRSA, strain MRSA 06) | MIC (S. aureus; MRSA, strain MRSA 08) | MIC (S. aureus; MRSA, strain MRSA 19) | MIC (S. aureus; MRSA, strain MRSA 20) | MIC (S. aureus; MRSA, strain MRSA 21) | MIC (S. aureus; MRSA, strain MRSA 30) | MIC (S. aureus; MRSA, strain MRSA 40) | MIC (S. aureus; MRSA, strain MRSA 87) | MIC (S. aureus; MRSA, strain MRSA 94) | MIC (S. aureus; MRSA, strain MRSA 96) | MIC (S. aureus; MRSA, strain MRSA 99) | MIC (S. aureus; MRSA, strain MRSA 100) | MIC (S. aureus; MRSA, strain MRSA 105) | MIC (S. aureus; MRSA, strain MRSA 106) | MIC (S. aureus; MRSA, strain MRSA 113)
1 µg/mL: MIC (S. aureus; MRSA, strain MRSA 10) | MIC (S. aureus; MRSA, strain MRSA 11)
≥ 4.10^−5: mutational frequency ([1]; at MIC×1)
8 µg/mL: MIC (S. aureus; MRSA, strain MRSA 36) | MIC (S. aureus; MRSA, strain MRSA 38) | MIC (S. aureus; MRSA, strain MRSA 39) | MIC (S. aureus; MRSA, strain MRSA 92) | MIC (S. aureus; MRSA, strain MRSA 95) | MIC (S. aureus; MRSA, strain MRSA 97) | MIC (S. aureus; MRSA, strain MRSA 101) | MIC (S. aureus; MRSA, strain MRSA 103) | MIC (S. aureus; MRSA, strain MRSA 111)
3.10^−7: mutational frequency ([1]; at MIC×10)
~1×10^−8: frequency of mutation of resistance (P. acnes; P. acnes)
16 µg/mL: MIC (S. aureus; MRSA, strain MRSA 03) | MIC (S. aureus; MRSA, strain MRSA 25) | MIC (S. aureus; MRSA, strain MRSA 35) | MIC (S. aureus; MRSA, strain MRSA 72) | MIC (S. aureus; MRSA, strain MRSA 77) | MIC (S. aureus; MRSA, strain MRSA 90)
> 16 µg/mL: MIC (S. aureus; MRSA, strain MRSA 14) | MIC (S. aureus; MRSA, strain MRSA 86)
4 µg/mL: MIC (S. aureus; MRSA, strain MRSA 12) | MIC (S. aureus; MRSA, strain MRSA 85) | MIC (S. aureus; MRSA, strain MRSA 108) | MIC (S. aureus; MSSA, strain MSSA 01) | MIC (S. aureus; MSSA, strain MSSA 02)
0.03 µg/mL: MIC (S. aureus; MRSA, strain MRSA 50)
7.21e-08 mL⁻¹: Frequency of mutation/ml (P. acnes; P. acnes strain 1044)
0.5 µg/mL: MIC (S. aureus; MRSA, strain MRSA 02) | MIC (S. aureus; MRSA, strain MRSA 26) | MIC (S. aureus; MRSA, strain MRSA 32) | MIC (S. aureus; MRSA, strain MRSA 33) | MIC (S. aureus; MRSA, strain MRSA 37) | MIC (S. aureus; MRSA, strain MRSA 75) | MIC (S. aureus; MRSA, strain MRSA 79)
0.06 µg/mL: MIC (S. aureus; MRSA, strain MRSA 88)
9.17e-08 mL⁻¹: Frequency of mutation/ml (P. acnes; P. acnes strain 998)
0.25 µg/mL: MIC (S. aureus; MRSA, strain MRSA 04) | MIC (S. aureus; MRSA, strain MRSA 07) | MIC (S. aureus; MRSA, strain MRSA 09) | MIC (S. aureus; MRSA, strain MRSA 16) | MIC (S. aureus; MRSA, strain MRSA 18) | MIC (S. aureus; MRSA, strain MRSA 23) | MIC (S. aureus; MRSA, strain MRSA 24) | MIC (S. aureus; MRSA, strain MRSA 27) | MIC (S. aureus; MRSA, strain MRSA 31) | MIC (S. aureus; MRSA, strain MRSA 34) | MIC (S. aureus; MRSA, strain MRSA 42) | MIC (S. aureus; MRSA, strain MRSA 49) | MIC (S. aureus; MRSA, strain MRSA 53) | MIC (S. aureus; MRSA, strain MRSA 64) | MIC (S. aureus; MRSA, strain MRSA 67) | MIC (S. aureus; MRSA, strain MRSA 73) | MIC (S. aureus; MRSA, strain MRSA 74) | MIC (S. aureus; MRSA, strain MRSA 76) | MIC (S. aureus; MRSA, strain MRSA 81) | MIC (S. aureus; MRSA, strain MRSA 91) | MIC (S. aureus; MRSA, strain MRSA 104) | MIC (S. aureus; MRSA, strain MRSA 107) | MIC (S. aureus; MRSA, strain MRSA 109) | MIC (S. aureus; NEWMAN, strain Newman)

O=C(Nc1ccc([N+](=O)[O-])cc1Cl)c1cc(Cl)ccc1O [Niclosamide, niclosamide]
0.125 µg/mL: MIC (S. aureus; MRSA, strain MRSA 70)
<2.5e-09 mL⁻¹: Frequency of mutation/ml (P. acnes; P. acnes strain 998)
less than 1×10^−9: frequency of mutation of resistance (P. acnes; P. acnes)
<2.7e-09 mL⁻¹: Frequency of mutation/ml (P. acnes; P. acnes strain CSS3288)
<1.92e-08 mL⁻¹: Frequency of mutation/ml (P. acnes; P. acnes strain 1044)
0.5 µg/mL: MIC90 (S. aureus; Staphylococcus aureus strains) | MIC (S. aureus; MRSA, strain MRSA 12) | MIC (S. aureus; MRSA, strain MRSA 26) | MIC (S. aureus; MRSA, strain MRSA 27) | MIC (S. aureus; MRSA, strain MRSA 29) | MIC (S. aureus; MRSA, strain MRSA 73) | MIC (S. aureus; MRSA, strain MRSA 75) | MIC (S. aureus; MRSA, strain MRSA 78) | MIC (S. aureus; MRSA, strain MRSA 80) | MIC (S. aureus; MRSA, strain MRSA 81) | MIC (S. aureus; MRSA, strain MRSA 83) | MIC (S. aureus; MRSA, strain MRSA 90) | MIC (S. aureus; MRSA, strain MRSA 98) | MIC (S. aureus; MRSA, strain MRSA 101) | MIC (S. aureus; MRSA, strain MRSA 104) | MIC (S. aureus; MRSA, strain MRSA 111) | MIC (S. aureus; MSSA, strain MSSA 01)
0.25 µg/mL: MIC50 (S. aureus; Staphylococcus aureus strains) | MIC (S. aureus; MRSA, strain MRSA 01) | MIC (S. aureus; MRSA, strain MRSA 02) | MIC (S. aureus; MRSA, strain MRSA 03) | MIC (S. aureus; MRSA, strain MRSA 04) | MIC (S. aureus; MRSA, strain MRSA 05) | MIC (S. aureus; MRSA, strain MRSA 06) | MIC (S. aureus; MRSA, strain MRSA 08) | MIC (S. aureus; MRSA, strain MRSA 10) | MIC (S. aureus; MRSA, strain MRSA 11) | MIC (S. aureus; MRSA, strain MRSA 13) | MIC (S. aureus; MRSA, strain MRSA 14) | MIC (S. aureus; MRSA, strain MRSA 15) | MIC (S. aureus; MRSA, strain MRSA 16) | MIC (S. aureus; MRSA, strain MRSA 17) | MIC (S. aureus; MRSA, strain MRSA 18) | MIC (S. aureus; MRSA, strain MRSA 19) | MIC (S. aureus; MRSA, strain MRSA 20) | MIC (S. aureus; MRSA, strain MRSA 21) | MIC (S. aureus; MRSA, strain MRSA 22) | MIC (S. aureus; MRSA, strain MRSA 23) | MIC (S. aureus; MRSA, strain MRSA 24) | MIC (S. aureus; MRSA, strain MRSA 25) | MIC (S. aureus; MRSA, strain MRSA 28) | MIC (S. aureus; MRSA, strain MRSA 30) | MIC (S. aureus; MRSA, strain MRSA 31) | MIC (S. aureus; MRSA, strain MRSA 32) | MIC (S. aureus; MRSA, strain MRSA 33) | MIC (S. aureus; MRSA, strain MRSA 34) | MIC (S. aureus; MRSA, strain MRSA 35) | MIC (S. aureus; MRSA, strain MRSA 88) | MIC (S. aureus; MRSA, strain MRSA 91) | MIC (S. aureus; MRSA, strain MRSA 92) | MIC (S. aureus; MRSA, strain MRSA 93) | MIC (S. aureus; MRSA, strain MRSA 94) | MIC (S. aureus; MRSA, strain MRSA 95) | MIC (S. aureus; MRSA, strain MRSA 96) | MIC (S. aureus; MRSA, strain MRSA 97) | MIC (S. aureus; MRSA, strain MRSA 99) | MIC (S. aureus; MRSA, strain MRSA 100) | MIC (S. aureus; MRSA, strain MRSA 102) | MIC (S. aureus; MRSA, strain MRSA 103) | MIC (S. aureus; MRSA, strain MRSA 105) | MIC (S. aureus; MRSA, strain MRSA 106) | MIC (S. aureus; MRSA, strain MRSA 107) | MIC (S. aureus; MRSA, strain MRSA 108) | MIC (S. aureus; MRSA, strain MRSA 109) | MIC (S. aureus; MRSA, strain MRSA 110) | MIC (S. aureus; MRSA, strain MRSA 112) | MIC (S. aureus; MRSA, strain MRSA 113) | MIC (S. aureus; MSSA, strain MSSA 02) | MIC (S. aureus; NEWMAN, strain Newman)
<4.55e-09 mL⁻¹: Frequency of mutation/ml (P. acnes; P. acnes strain CSS3023)
< 4.10^−9: mutational frequency ([1]; at MIC×1, all tested strains (MRSA 01, MRSA 15, MRSA 16), below the detection limit)
at least 10 times: frequency of mutation, times lower than the two comparator compounds fusidic acid and retapamulin (P. acnes; P. acnes)
27% (55/205): MIC distribution: percentage of Staphylococcus aureus strains (S. aureus; MIC 0.5 μg/ml, 205 strains)
